≈ marks a conversion by molar mass, not a printed value.
How the values were obtained:
Burkholderia cepacia = experiment: MIC broth dilution assay; type: cell-based; details: B. cepacia, read-out: minimum inhibitory concentration
Experimental: (§1) Both about 1-10 kDa fractions of poly(trimethylene dipyridine-alt-octane chloride) (TMDP-C8) and about 1.2 kDa poly(trimethylene dipyridine-alt-2,7-dihydroxyoctane chloride) (TMDP-C8(OH)2) have broad, though not identical antimicrobial activity.
(§2) Poly(trimethylene dipyridine-alt-5-oxanonane) having a molecular weight 0.5-1 kDa was tested in A-549 lung epithelial cells to determine its IC50 value in comparison with tobramycin, a conventional antibiotic. In addition, the minimum inhibitory concentrations for the two compounds were determined in vitro for a number of bacterial strains and species. The results are as shown below, where all concentrations are expressed as μg/mL: […]

Pseudomonas aeruginosa = experiment: MIC broth dilution assay; type: cell-based
Experimental: as §1, §2

[1] = system: Stenotrophomonas maltophilia; experiment: MIC broth dilution assay; type: cell-based; details: S. maltophilia, read-out: minimum inhibitory concentration
Experimental: as §1, §2

Staphylococcus aureus = experiment: MIC broth dilution assay; type: cell-based; details: S. aureus, read-out: minimum inhibitory concentration
Experimental: as §1, §2

[2] = system: A-549 lung epithelial cell line; experiment: Alamar Blue in vitro cytotoxicity; type: cell-based
Experimental: The oligomers were screened for in vitro cytotoxicity following 18-24 hr exposure using the metabolic indicator Alamar Blue™ (Alamar Biosciences, Sacramento, Calif.) against the A-549 lung epithelial cell line according to the manufacturer's instructions. Briefly, flat-bottom polystyrene microtiter plates were seeded with 2×10^4 cells in Ham's F-12 medium (Invitrogen) containing 10% fetal bovine serum (FBS) and were incubated ˜48 hr at 37° C., until cells were confluent. Medium was then aspirated off and replaced with medium lacking FBS. The oligomers were added to the first row (final concentration 5 mg/ml) and serial 2-fold dilutions were prepared across the plate. Plates were incubated 18-24 hr at 37° C.; medium containing test compounds was aspirated off, wells were washed once with PBS and fresh medium (lacking FBS and phenol red) was added. Alamar Blue™ was added (final concentration 30%); cells were incubated 4 hr and absorbance was read at 570 nm. The IC50 was then calculated.
as §2

P. aeruginosa = details: within 11 passages, published studies; cited from earlier work
MRSA = details: over 15 passages, published studies; cited from earlier work
[3] = design: species or system pigs; details: pig, in vivo
Experimental: The non-substituted C8-containing compound TMDP-C8 (about 1-10 kDa) was tested at 10 mg/ml for its ability to reduce S. aureus infections introduced into dermal wounds in pigs.

## NC[C@H]1O[C@H](O[C@H]2[C@H](O)[C@@H](O[C@H]3O[C@H](CO)[C@@H](O)[C@H](N)[C@H]3O)[C@H](N)C[C@@H]2N)[C@H](N)C[C@@H]1O [Tobramycin, tobramycin]
Burkholderia cepacia
  MIC: > 50 µg/mL
Pseudomonas aeruginosa; P. aeruginosa PA01
  minimum inhibitory concentration: 0.39 µg/mL (≈ 0.834 µM)
Pseudomonas aeruginosa; Pseudomonas aeruginosa, P. aeruginosa G38, read-out: minimum inhibitory concentration
  MIC: 0.39 µg/mL (≈ 0.834 µM)
[1]
  MIC: 25 µg/mL (≈ 53.5 µM)
Staphylococcus aureus
  MIC: 0.195 µg/mL (≈ 0.417 µM)
[2]; Homo sapiens, A549, A-549 lung epithelial cells
  IC50: 5000 µg/mL (≈ 10700 µM)

## CCn1cc(C(=O)O)c(=O)c2cc(F)c(N3CCNCC3)cc21 [norfloxacin]
P. aeruginosa
  rise of MIC: 10 fold
MRSA
  rise of MIC: 85 fold

## gentamicin
P. aeruginosa
  rise of MIC: 190 fold

## poly(trimethylene dipyridine-alt-octane chloride) [TMDP-C8]
[3]
  effect on wound healing: did not inhibit or retard healing

## poly(trimethylene dipyridine-alt-octane) [TMDP-C8 1-3k]
[2]
  IC50, In vitro Cytotoxicity of Compounds Tested in First Rat Lung Study: 322 µg/mL

## poly(trimethylene dipyridine-alt-octane) [TMDP-C8 >1k]
[2]
  IC50, In vitro Cytotoxicity of Compounds Tested in First Rat Lung Study: 30 µg/mL

Reference: patent US20060002887A1, “Ionene oligomers and polymers” (Genzyme Corporation, priority 2002, published 2006)
